Laboratory results from ChEMBL document CHEMBL1629605, “Effect of a single dose of ritonavir on the pharmacokinetic behavior of elvucitabine, a nucleoside reverse transcriptase inhibitor, administered in healthy volunteers” (Antimicrob Agents Chemother, 2009).

What was measured:
[1] = Terminal half life in human at 20 mg administered under fasting condition; format: ADME, organism-based; conditions: in vivo, read-out: beta t1/2 (converted)
[2] = Terminal half life in human at 20 mg administered under fasting condition presence of 300 mg of ritonavir; format: ADME, organism-based; conditions: in vivo, read-out: beta t1/2 (converted)
[3] = AUC (0 to 24 hrs) in human at 20 mg administered under fasting condition; format: ADME, organism-based; design: time < 24 hr, dose 20 mg; conditions: plasma
[4] = AUC (0 to t) in human at 20 mg administered under fasting condition; format: ADME, organism-based; conditions: plasma
[5] = AUC (0 to infinity) in human at 20 mg administered under fasting condition; format: ADME, organism-based; design: dose 20 mg, time infinity; conditions: plasma
[6] = Cmax in human at 20 mg administered under fasting condition; conditions: in vivo
[7] = Clearance in human at 20 mg administered under fasting condition; format: ADME, organism-based; conditions: in vivo
[8] = Tmax in human at 20 mg administered under fasting condition; format: ADME, organism-based; conditions: in vivo
[9] = Half life in human at 20 mg administered under fasting condition; format: ADME, organism-based; conditions: in vivo
[10] = AUC (0 to 24 hrs) in human at 20 mg administered under fasting condition in presence of 300 mg of ritonavir; format: ADME, organism-based; design: time < 24 hr, dose 20 mg; conditions: plasma
[11] = AUC (0 to t) in human at 20 mg administered under fasting condition in presence of 300 mg of ritonavir; format: ADME, organism-based; conditions: plasma
[12] = AUC (0 to infinity) in human at 20 mg administered under fasting condition in presence of 300 mg of ritonavir; format: ADME, organism-based; design: dose 20 mg, time infinity; conditions: plasma
[13] = Apparent oral clearance in human at 20 mg administered under fasting condition; format: ADME, organism-based; conditions: in vivo
[14] = Apparent oral clearance in human at 20 mg administered under fasting condition presence of 300 mg of ritonavir; format: ADME, organism-based; conditions: in vivo
Homo sapiens [15] = experiment: Central volume of distribution with respect to the bioavailability in human at 20 mg administered under fasting condition presence of 300 mg of ritonavir; format: ADME, organism-based; conditions: in vivo
Homo sapiens [16] = experiment: Distributional clearance with respect to the bioavailability in human at 20 mg administered under fasting condition; format: ADME, organism-based; conditions: in vivo
Homo sapiens [17] = experiment: Distributional clearance with respect to the bioavailability in human at 20 mg administered under fasting condition presence of 300 mg of ritonavir; format: ADME, organism-based; conditions: in vivo
Homo sapiens [18] = experiment: Peripheral volume of distribution with respect to the bioavailability in human at 20 mg administered under fasting condition; format: ADME, organism-based; conditions: in vivo
Homo sapiens [19] = experiment: Peripheral volume of distribution with respect to the bioavailability in human at 20 mg administered under fasting condition presence of 300 mg of ritonavir; format: ADME, organism-based; conditions: in vivo
[20] = Volume of distribution at steady state with respect to the bioavailability in human at 20 mg administered under fasting condition; format: ADME, organism-based; conditions: in vivo, read-out: Vss/F
[21] = Volume of distribution at steady state with respect to the bioavailability in human at 20 mg administered under fasting condition presence of 300 mg of ritonavir; format: ADME, organism-based; conditions: in vivo, read-out: Vss/F
[22] = Clearance in human at 20 mg administered under fasting condition in presence of 300 mg of ritonavir; format: ADME, organism-based; conditions: in vivo
[23] = Tmax in human at 20 mg administered under fasting condition in presence of 300 mg of ritonavir; format: ADME, organism-based; conditions: in vivo
[24] = Half life in human at 20 mg administered under fasting condition in presence of 300 mg of ritonavir; format: ADME, organism-based; conditions: in vivo
[25] = Central volume of distribution with respect to the bioavailability in human at 20 mg administered under fasting condition; format: ADME, organism-based; conditions: in vivo, read-out: Vc/F
Homo sapiens [26] = experiment: Time prior to start absorption at first absorption site in human at 20 mg administered under fasting condition; format: ADME, organism-based; conditions: in vivo
Homo sapiens [27] = experiment: Time prior to start absorption at first absorption site in human at 20 mg administered under fasting condition presence of 300 mg of ritonavir; format: ADME, organism-based; conditions: in vivo
Homo sapiens [28] = experiment: Time prior to start absorption at second absorption site in human at 20 mg administered under fasting condition; format: ADME, organism-based; conditions: in vivo
Homo sapiens [29] = experiment: Time prior to start absorption at second absorption site in human at 20 mg administered under fasting condition presence of 300 mg of ritonavir; format: ADME, organism-based; conditions: in vivo
Homo sapiens [30] = experiment: Absorption rate constant at first absorption site in human at 20 mg administered under fasting condition; format: ADME, organism-based; conditions: in vivo
Homo sapiens [31] = experiment: Absorption rate constant at first absorption site in human at 20 mg administered under fasting condition presence of 300 mg of ritonavir; format: ADME, organism-based; conditions: in vivo
Homo sapiens [32] = experiment: Absorption rate constant at second absorption site in human at 20 mg administered under fasting condition; format: ADME, organism-based; conditions: in vivo
Homo sapiens [33] = experiment: Absorption rate constant at second absorption site in human at 20 mg administered under fasting condition presence of 300 mg of ritonavir; format: ADME, organism-based; conditions: in vivo
clinical = conditions: human, in vivo
Description: Cmax in human at 20 mg administered under fasting condition in presence of 300 mg of ritonavir

half-life [1]: 2.44 days
half-life [2]: 2.51 days
AUC(0-t) at 24 h [3]: 732 ng·h/mL
AUC(0-t) [4]: 1030 ng·h/mL
AUC(0-inf) [5]: 1240 ng·h/mL
Cmax [6]: 136 ng/mL
clearance [7]: 293 mL/min
Tmax [8]: 3.78 h
half-life [9]: 2.46 days
AUC(0-t) at 24 h [10]: 568 ng·h/mL
AUC(0-t) [11]: 790 ng·h/mL
AUC(0-inf) [12]: 979 ng·h/mL
CL/F [13]: 297 mL/min
CL/F [14]: 487 mL/min
Vc/F (Homo sapiens [15]): 24.8 L
CLd/F (Homo sapiens [16]): 16.3 L/h
CLd/F (Homo sapiens [17]): 19.3 L/h
Vp/F (Homo sapiens [18]): 703 L
Vp/F (Homo sapiens [19]): 897 L
Vd/F [20]: 729 L
Vd/F [21]: 921 L
clearance [22]: 467 mL/min
Tmax [23]: 5.12 h
half-life [24]: 2.26 days
Vd/F [25]: 26.1 L
Time (Homo sapiens [26]): 1.6 h
Time (Homo sapiens [27]): 2.96 h
Time (Homo sapiens [28]): 2.3 h
Time (Homo sapiens [29]): 3.54 h
ka (Homo sapiens [30]): 0.183 h⁻¹
ka (Homo sapiens [31]): 0.127 h⁻¹
ka (Homo sapiens [32]): 0.459 h⁻¹
ka (Homo sapiens [33]): 0.483 h⁻¹
Cmax (clinical): 102 ng/mL
Structure (SMILES): Nc1nc(=O)n([C@@H]2C=C[C@H](CO)O2)cc1F [ELVUCITABINE]
